ChEMBL document CHEMBL5104230, “Preparation, biological evaluation and QSAR analysis of urea substituted 2,4-diamino-pyrimidine anti-malarials” (RSC Med Chem, 2022)
≈ marks a conversion by molar mass, not a printed value.

Legend:
HepG2 [1] = experiment: Cytotoxicity against human HepG2 cells assessed as cell growth inhibition incubated for 72 hrs by resazurin dye based fluorescence assay; assay type: functional; settings: HepG2, 72 h
Plasmodium falciparum [2] = experiment: Antimalarial activity against chloroquine sensitive Plasmodium falciparum 3D7 infected in human RBC assessed as parasite growth inhibition incubated for 72 hrs by SYBR Green dye based fluorescence assay; assay type: functional, organism-based; settings: 3D7, Erythrocyte
[3] = Metabolic stability in human liver microsome assessed as intrinsic clearance at 0.5 uM incubated upto 30 mins by UPLC-MS/MS analysis; assay type: ADME; settings: microsomes, 0.5 h
[4] = molecular target: Mitogen-activated protein kinase 8 (Homo sapiens) (UniProt P45983); experiment: Inhibition of human JNK1 at 1 uM incubated for 30 mins in presence of [gamma-33P]ATP by kinase selectivity assay
Sequence of Mitogen-activated protein kinase 8 (Homo sapiens) (P45983 whole entry): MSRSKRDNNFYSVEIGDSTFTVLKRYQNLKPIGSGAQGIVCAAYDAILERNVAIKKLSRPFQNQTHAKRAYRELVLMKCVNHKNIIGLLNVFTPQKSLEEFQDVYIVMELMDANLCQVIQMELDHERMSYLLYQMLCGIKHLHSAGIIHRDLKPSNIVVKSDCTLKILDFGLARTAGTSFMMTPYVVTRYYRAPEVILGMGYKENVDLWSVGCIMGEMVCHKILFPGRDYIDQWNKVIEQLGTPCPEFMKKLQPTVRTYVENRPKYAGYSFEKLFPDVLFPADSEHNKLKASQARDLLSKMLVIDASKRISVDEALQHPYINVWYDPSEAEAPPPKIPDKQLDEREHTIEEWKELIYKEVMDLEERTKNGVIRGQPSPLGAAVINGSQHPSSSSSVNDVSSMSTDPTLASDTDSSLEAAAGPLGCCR

[5] = Metabolic stability in CD1 mouse liver microsome assessed as intrinsic clearance at 0.5 uM incubated upto 30 mins by UPLC-MS/MS analysis; assay type: ADME; settings: microsomes, 0.5 h
[6] = molecular target: Cyclin-dependent kinase 2 (Homo sapiens) (UniProt P24941); experiment: Inhibition of human CDK2 at 1 uM incubated for 30 mins in presence of [gamma-33P]ATP by kinase selectivity assay
[7] = Aqueous solubility of compound in PBS buffer at pH 7.4 by HPLC-UV analysis; assay type: physicochemical
[8] = Partition coefficient, logD of compound in octanol and phosphate buffer at pH 7.4 incubated for 6 hrs under shaking condition by HPLC-UV analysis; assay type: physicochemical
[9] = molecular target: Mitogen-activated protein kinase 3 (Homo sapiens) (UniProt P27361); experiment: Inhibition of human ERK1 at 1 uM incubated for 30 mins in presence of [gamma-33P]ATP by kinase selectivity assay
Sequence of Mitogen-activated protein kinase 3 (Homo sapiens) (P27361 whole entry): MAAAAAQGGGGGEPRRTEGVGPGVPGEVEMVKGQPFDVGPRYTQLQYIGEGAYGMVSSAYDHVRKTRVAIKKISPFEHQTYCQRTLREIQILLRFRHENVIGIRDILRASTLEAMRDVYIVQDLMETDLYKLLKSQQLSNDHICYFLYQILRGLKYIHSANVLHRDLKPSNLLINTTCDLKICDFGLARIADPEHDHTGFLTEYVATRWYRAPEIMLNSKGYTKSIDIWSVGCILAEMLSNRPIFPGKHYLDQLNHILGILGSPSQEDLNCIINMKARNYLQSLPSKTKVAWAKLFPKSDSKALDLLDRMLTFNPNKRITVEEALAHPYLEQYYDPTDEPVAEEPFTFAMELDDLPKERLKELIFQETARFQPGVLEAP

[10] = molecular target: Mitogen-activated protein kinase kinase kinase 1 (Homo sapiens) (UniProt Q13233); experiment: Inhibition of human MEKK1 at 1 uM incubated for 30 mins in presence of [gamma-33P]ATP by kinase selectivity assay
Sequence of Mitogen-activated protein kinase kinase kinase 1 (Homo sapiens) (Q13233 whole entry): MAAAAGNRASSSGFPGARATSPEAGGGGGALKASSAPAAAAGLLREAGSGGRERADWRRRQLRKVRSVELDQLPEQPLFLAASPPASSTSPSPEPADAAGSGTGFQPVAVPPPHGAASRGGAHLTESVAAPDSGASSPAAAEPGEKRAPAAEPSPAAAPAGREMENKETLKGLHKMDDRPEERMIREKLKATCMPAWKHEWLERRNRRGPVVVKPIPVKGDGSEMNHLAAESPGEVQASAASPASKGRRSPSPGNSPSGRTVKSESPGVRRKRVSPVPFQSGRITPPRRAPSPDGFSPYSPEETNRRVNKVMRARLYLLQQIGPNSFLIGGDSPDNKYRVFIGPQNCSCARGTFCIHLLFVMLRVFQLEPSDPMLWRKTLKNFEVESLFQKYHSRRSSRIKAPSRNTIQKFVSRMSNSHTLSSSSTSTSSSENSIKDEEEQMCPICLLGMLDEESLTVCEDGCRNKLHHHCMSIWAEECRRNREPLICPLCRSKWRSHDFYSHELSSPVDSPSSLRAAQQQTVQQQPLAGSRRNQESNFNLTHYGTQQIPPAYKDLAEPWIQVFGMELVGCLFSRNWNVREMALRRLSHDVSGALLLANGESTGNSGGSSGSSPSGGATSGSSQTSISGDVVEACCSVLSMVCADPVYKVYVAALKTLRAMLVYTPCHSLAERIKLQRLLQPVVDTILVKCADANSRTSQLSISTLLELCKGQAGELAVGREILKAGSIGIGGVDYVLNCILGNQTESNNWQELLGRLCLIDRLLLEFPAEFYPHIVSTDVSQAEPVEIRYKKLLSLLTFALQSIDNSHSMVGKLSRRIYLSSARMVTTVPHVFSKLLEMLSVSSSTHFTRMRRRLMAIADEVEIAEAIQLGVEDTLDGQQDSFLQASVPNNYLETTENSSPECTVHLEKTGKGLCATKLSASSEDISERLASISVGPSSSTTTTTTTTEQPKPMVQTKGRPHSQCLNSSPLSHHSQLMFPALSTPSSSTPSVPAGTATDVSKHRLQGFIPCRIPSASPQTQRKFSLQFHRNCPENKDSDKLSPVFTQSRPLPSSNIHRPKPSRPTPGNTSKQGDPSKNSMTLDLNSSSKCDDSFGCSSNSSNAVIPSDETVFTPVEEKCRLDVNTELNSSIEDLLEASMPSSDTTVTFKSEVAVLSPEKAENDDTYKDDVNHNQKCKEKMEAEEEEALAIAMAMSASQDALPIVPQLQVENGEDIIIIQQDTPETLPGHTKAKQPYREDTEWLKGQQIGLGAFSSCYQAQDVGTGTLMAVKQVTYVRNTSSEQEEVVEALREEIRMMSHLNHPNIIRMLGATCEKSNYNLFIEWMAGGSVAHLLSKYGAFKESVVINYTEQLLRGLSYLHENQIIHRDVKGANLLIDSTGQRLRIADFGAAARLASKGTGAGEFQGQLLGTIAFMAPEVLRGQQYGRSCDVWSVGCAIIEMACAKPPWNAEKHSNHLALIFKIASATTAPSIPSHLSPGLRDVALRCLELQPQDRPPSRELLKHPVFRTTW

[11] = molecular target: T1, Mitogen-activated protein kinase kinase kinase 7 (Homo sapiens) (UniProt O43318); experiment: Inhibition of human TAK1 at 1 uM incubated for 30 mins in presence of [gamma-33P]ATP by kinase selectivity assay
T1 sequence (whole entry): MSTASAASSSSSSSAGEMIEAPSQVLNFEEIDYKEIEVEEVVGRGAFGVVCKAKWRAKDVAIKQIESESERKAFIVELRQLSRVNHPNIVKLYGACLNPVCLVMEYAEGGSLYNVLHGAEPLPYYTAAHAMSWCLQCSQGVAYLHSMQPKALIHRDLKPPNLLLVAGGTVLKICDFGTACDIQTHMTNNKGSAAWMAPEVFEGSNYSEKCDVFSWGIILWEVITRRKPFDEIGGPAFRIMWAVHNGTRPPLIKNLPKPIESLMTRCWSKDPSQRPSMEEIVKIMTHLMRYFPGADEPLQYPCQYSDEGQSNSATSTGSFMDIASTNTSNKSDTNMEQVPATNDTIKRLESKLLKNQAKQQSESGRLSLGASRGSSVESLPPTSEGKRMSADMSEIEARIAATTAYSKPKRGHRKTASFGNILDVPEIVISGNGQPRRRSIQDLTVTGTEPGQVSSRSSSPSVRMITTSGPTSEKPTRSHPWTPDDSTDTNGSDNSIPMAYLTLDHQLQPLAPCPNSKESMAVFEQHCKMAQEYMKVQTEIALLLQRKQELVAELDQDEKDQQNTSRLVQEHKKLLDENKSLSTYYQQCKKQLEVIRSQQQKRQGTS

[12] = molecular target: Serine/threonine-protein kinase pim-1 (Homo sapiens) (UniProt P11309); experiment: Inhibition of human PIM1 at 1 uM incubated for 30 mins in presence of [gamma-33P]ATP by kinase selectivity assay
Sequence of Serine/threonine-protein kinase pim-1 (Homo sapiens) (P11309 whole entry, looked up): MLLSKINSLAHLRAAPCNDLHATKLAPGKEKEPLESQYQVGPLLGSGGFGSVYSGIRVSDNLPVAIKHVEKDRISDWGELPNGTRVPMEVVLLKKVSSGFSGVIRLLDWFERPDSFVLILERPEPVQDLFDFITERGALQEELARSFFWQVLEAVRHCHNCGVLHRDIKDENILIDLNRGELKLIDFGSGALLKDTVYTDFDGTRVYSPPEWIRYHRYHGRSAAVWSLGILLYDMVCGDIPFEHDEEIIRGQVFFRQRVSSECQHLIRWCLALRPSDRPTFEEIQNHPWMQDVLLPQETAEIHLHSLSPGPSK

[13] = molecular target: Vascular endothelial growth factor receptor 1 (Homo sapiens) (UniProt P17948); experiment: Inhibition of human VEGFR1 at 1 uM incubated for 30 mins in presence of [gamma-33P]ATP by kinase selectivity assay
[14] = molecular target: T2, Tyrosine-protein kinase JAK3 (Homo sapiens) (UniProt P52333); experiment: Inhibition of human JAK3 at 1 uM incubated for 30 mins in presence of [gamma-33P]ATP by kinase selectivity assay
T2 sequence (whole entry): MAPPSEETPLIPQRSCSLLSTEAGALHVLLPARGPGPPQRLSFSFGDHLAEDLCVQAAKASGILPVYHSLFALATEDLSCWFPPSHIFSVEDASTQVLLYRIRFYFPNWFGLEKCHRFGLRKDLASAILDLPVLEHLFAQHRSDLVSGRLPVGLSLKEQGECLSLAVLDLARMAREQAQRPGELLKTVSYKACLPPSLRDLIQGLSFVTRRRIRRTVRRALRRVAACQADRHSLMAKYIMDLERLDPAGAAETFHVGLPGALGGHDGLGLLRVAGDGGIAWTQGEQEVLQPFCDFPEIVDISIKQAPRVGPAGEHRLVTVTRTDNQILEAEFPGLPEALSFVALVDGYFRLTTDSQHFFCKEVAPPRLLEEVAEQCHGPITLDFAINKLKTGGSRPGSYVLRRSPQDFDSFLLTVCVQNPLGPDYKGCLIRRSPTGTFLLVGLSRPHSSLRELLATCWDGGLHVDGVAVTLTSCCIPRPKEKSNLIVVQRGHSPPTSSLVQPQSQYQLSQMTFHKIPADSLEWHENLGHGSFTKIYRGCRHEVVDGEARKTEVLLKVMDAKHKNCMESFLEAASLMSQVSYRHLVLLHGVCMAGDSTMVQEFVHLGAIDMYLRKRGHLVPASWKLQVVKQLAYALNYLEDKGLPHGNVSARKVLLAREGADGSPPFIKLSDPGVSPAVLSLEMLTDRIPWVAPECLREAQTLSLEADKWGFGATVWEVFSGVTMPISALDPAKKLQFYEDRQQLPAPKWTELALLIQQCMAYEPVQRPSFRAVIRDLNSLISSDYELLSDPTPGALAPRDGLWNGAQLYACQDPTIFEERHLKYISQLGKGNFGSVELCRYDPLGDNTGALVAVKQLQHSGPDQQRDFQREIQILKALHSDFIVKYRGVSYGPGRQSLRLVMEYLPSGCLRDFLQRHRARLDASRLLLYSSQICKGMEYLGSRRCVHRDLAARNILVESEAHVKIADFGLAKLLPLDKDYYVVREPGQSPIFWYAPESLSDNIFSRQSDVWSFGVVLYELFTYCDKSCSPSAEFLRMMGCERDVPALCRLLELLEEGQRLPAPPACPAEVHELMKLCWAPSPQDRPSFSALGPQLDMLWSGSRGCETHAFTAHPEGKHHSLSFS

[15] = molecular target: Receptor tyrosine-protein kinase erbB-4 (Homo sapiens) (UniProt Q15303); experiment: Inhibition of human HER4 at 1 uM incubated for 30 mins in presence of [gamma-33P]ATP by kinase selectivity assay
Sequence of Receptor tyrosine-protein kinase erbB-4 (Homo sapiens) (Q15303 whole entry): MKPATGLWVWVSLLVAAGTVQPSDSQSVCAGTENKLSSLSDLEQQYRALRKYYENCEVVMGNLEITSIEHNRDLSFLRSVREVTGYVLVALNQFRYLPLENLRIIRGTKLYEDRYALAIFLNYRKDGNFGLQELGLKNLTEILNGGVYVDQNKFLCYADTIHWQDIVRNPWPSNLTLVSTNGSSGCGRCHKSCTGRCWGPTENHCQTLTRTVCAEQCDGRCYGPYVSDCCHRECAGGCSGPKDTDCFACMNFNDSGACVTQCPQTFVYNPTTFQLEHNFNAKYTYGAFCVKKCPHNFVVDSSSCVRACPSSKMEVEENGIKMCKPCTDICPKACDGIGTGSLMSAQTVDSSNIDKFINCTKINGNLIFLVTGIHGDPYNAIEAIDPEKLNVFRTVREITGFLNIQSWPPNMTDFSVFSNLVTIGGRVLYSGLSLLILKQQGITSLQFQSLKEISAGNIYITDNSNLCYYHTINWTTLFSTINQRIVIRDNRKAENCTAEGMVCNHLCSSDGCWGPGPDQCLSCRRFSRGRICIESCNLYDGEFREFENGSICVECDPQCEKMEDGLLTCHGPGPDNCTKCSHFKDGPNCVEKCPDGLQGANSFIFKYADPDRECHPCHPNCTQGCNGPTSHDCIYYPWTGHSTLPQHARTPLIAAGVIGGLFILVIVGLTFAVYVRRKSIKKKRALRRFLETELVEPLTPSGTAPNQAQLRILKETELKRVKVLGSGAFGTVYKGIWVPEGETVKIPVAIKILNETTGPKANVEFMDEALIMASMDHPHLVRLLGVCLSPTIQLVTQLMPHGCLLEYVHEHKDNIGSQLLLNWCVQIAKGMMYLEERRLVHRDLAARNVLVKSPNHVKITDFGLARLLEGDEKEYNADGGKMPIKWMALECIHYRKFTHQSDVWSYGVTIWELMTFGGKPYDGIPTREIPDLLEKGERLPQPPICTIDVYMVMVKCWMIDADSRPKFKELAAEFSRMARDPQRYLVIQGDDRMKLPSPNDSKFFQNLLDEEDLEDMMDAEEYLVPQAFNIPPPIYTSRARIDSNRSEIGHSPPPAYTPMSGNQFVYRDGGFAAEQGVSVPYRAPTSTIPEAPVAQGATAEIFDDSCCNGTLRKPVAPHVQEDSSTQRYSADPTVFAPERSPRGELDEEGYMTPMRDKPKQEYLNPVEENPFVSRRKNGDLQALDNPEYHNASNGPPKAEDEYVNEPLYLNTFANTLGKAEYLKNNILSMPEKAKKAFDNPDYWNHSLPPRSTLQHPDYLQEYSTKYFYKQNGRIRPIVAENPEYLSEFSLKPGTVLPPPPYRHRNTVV

[16] = molecular target: T3, Aurora kinase A (Homo sapiens) (UniProt O14965); experiment: Inhibition of human AURA at 1 uM incubated for 30 mins in presence of [gamma-33P]ATP by kinase selectivity assay
T3 sequence (whole entry): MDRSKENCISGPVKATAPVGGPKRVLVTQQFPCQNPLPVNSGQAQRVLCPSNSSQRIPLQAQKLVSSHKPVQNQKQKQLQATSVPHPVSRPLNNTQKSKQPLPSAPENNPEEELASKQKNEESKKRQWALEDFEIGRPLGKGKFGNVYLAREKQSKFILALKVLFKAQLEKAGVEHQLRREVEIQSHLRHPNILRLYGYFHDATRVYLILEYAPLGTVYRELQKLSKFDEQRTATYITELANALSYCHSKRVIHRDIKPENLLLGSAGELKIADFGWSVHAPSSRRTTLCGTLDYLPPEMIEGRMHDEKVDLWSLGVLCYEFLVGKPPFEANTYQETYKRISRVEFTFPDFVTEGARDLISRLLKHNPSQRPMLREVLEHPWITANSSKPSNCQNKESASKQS

HepG2 [17] = experiment: Cytotoxicity against human HepG2 cells assessed as cell growth inhibition at 10 uM incubated for 48 hrs by CellTiter-Glo assay; assay type: functional; set-up: scale not given: the % may be the effect or the level left
Plasmodium falciparum [18] = experiment: Antimalarial activity against Plasmodium falciparum 3D7 assessed as reduction in parasite growth incubated for 72 hrs; assay type: functional, organism-based; settings: 3D7, 72 h
[19] = Effective permeability in PBS at pH 7.4 incubated for 5 hrs by PAMPA based UPLC-MS/MS analysis; assay type: ADME

| SMILES | IC50 (HepG2 [1]) [µM] | IC50 (Plasmodium falciparum [2]) [nM] | further results |
| --- | --- | --- | --- |
| O=C(Nc1ccccc1)Nc1cccc(Nc2nccc(Nc3ccc4nc[nH]c4c3)n2)c1 | 11 | 540 | – |
| O=C(Nc1ccc(Nc2nccc(Nc3ccc4cn[nH]c4c3)n2)cc1)Nc1cccc(F)c1 | 6.6 | 1000 | – |
| Cc1cnc(Nc2cccc(NC(=O)Nc3ccccc3)c2)nc1Nc1ccc2cn[nH]c2c1 | 3.6 | 150 | – |
| O=C(Nc1ccc(F)cc1)Nc1cccc(Nc2nccc(Nc3ccc4cn[nH]c4c3)n2)c1 | 12 | 400 | – |
| O=S(=O)(c1ccc(Nc2nccc(Nc3ccc4nc[nH]c4c3)n2)cc1)N1CCOCC1 | > 25 | 7100 | – |
| O=C(Nc1ccc(F)cc1)Nc1ccc(Nc2nccc(Nc3ccc4cn[nH]c4c3)n2)cc1 | 3.5 | 790 | – |
| Cc1ccc(NC(=O)Nc2cccc(Nc3nccc(Nc4ccc5cn[nH]c5c4)n3)c2)cc1 | 11 | 720 | – |
| Nc1cnc(Nc2cccc(NC(=O)Nc3ccccc3)c2)nc1Nc1ccc2cn[nH]c2c1 | > 25 | 2900 | – |
| COc1ccc(NC(=O)Nc2ccccc2)cc1Nc1nccc(Nc2ccc3cn[nH]c3c2)n1 | 6.5 | 1500 | – |
| O=C1NC(Cc2ccc(Nc3nccc(Nc4ccc5cn[nH]c5c4)n3)cc2)CO1 (stereo not given) | 20 | 7100 | – |
| Cc1ccc(Nc2nccc(Nc3ccc4cn[nH]c4c3)n2)cc1NC(=O)Nc1ccccc1 | 8.9 | 1000 | – |
| Cn1cc2ccc(Nc3ccnc(Nc4cccc(NC(=O)Nc5ccccc5)c4)n3)cc2n1 | 12 | 220 | CLH [3]: 9.1 mL/min/g; inhibition [4]: 68.8%; CLH [5]: > 50 mL/min/g; inhibition [6]: 78.7%; solubility [7]: 0.11 µg/mL (≈ 0.244 µM); logD at 6 h [8]: ≥ 4; inhibition [9]: 65.6%; inhibition [10]: 52.4%; inhibition [11]: 35.8%; inhibition [12]: 102%; inhibition [13]: 4.1%; inhibition [14]: 51.4%; inhibition [15]: 67.7%; inhibition [16]: 22% |
| CN1CCN(c2ccc(Nc3ncc(C#N)c(Nc4ccccc4C(N)=O)n3)cc2)CC1 | – | – | Activity (HepG2 [17]): 43%; EC50 (Plasmodium falciparum [18]): 40 nM |
| c1cc(Nc2ccc3cn[nH]c3c2)nc(Nc2ccc(OCCN3CCOCC3)cc2)n1 | 15 | 2100 | – |
| Cc1c2ccc(Nc3ccnc(Nc4cccc(NC(=O)Nc5ccccc5)c4)n3)cc2nn1C | 2.4 | 170 | – |
| c1cc(Nc2ccc3nc[nH]c3c2)nc(Nc2ccc(OCCN3CCOCC3)cc2)n1 | > 25 | 1200 | – |
| O=C(Nc1ccccc1)Nc1cccc(Nc2nccc(Nc3ccc4cc[nH]c4c3)n2)c1 | 3.2 | 90 | CLH [3]: 2.6 mL/min/g; inhibition [4]: 59.6%; CLH [5]: 3.8 mL/min/g; Papp at 5 h [19]: 10 ×10⁻⁶ cm/s; inhibition [6]: 78.8%; solubility [7]: 0.44 µg/mL (≈ 1.01 µM); logD at 6 h [8]: ≥ 4; inhibition [9]: 75.6%; inhibition [10]: 40.7%; inhibition [11]: 17.1%; inhibition [12]: 80.2%; inhibition [13]: 2.4%; inhibition [14]: 57.7%; inhibition [15]: 42.3%; inhibition [16]: 16.5% |
| O=C(Nc1ccccc1)Nc1ccc(Nc2nccc(Nc3ccc4cn[nH]c4c3)n2)cc1 | 11 | 920 | – |
| O=C(Nc1ccccc1)Nc1cccc(Nc2nccc(Nc3ccc4cn[nH]c4c3)n2)c1 | 8.2 | 470 | – |
| O=C(Nc1ccccc1)Nc1cccc(Nc2ncc([N+](=O)[O-])c(Nc3ccc4cn[nH]c4c3)n2)c1 | > 25 | 6400 | – |
| Cc1cccc(NC(=O)Nc2cccc(Nc3nccc(Nc4ccc5cn[nH]c5c4)n3)c2)c1 | 2.8 | 320 | – |
| O=C(Nc1ccccc1)Nc1cccc(Nc2nccc(Nc3ccc4[nH]ncc4c3)n2)c1 | 8.1 | 330 | – |
| c1cc(Nc2ccc3cn[nH]c3c2)nc(Nc2ccc(Cn3cncn3)cc2)n1 | 18 | 7200 | – |
| CC(=O)c1ccc(NC(=O)Nc2ccc(N(C)c3ccnc(Nc4cccc(CS(C)(=O)=O)c4)n3)cc2)cc1 | – | – | Activity (HepG2 [17]): 86%; EC50 (Plasmodium falciparum [18]): 120 nM |
| CN1CCN(S(=O)(=O)c2ccc(Nc3nccc(Nc4ccc5nc[nH]c5c4)n3)cc2)CC1 | > 25 | 1200 | – |
| O=C(Nc1ccccc1)Nc1cc(Nc2nccc(Nc3ccc4cn[nH]c4c3)n2)ccc1O | 25 | 1400 | – |
| O=C(Nc1ccccc1)Nc1cccc(Nc2nccc(Nc3ccc4[nH]ccc4c3)n2)c1 | 5 | 93 | CLH [3]: 5 mL/min/g; inhibition [4]: 68%; CLH [5]: 8.8 mL/min/g; inhibition [6]: 71.4%; solubility [7]: 0.33 µg/mL (≈ 0.758 µM); logD at 6 h [8]: ≥ 4; inhibition [9]: 84%; inhibition [10]: 45.9%; inhibition [11]: 26.6%; inhibition [12]: 99.6%; inhibition [13]: 1.8%; inhibition [14]: 56.7%; inhibition [15]: 32.2%; inhibition [16]: 21.7% |
| O[C@@H](c1cc(C(F)(F)F)nc2c(C(F)(F)F)cccc12)[C@H]1CCCCN1 [(S,R)-MEFLOQUINE] | 11.5 | – | – |
| O=C(Nc1ccccc1)Nc1cccc(Nc2ncc(Cl)c(Nc3ccc4cn[nH]c4c3)n2)c1 | 3.5 | 2500 | – |
